Assay results published in US20090018194A1, “Use of antimicrobial agents derived from alliaceous plants for the prevention and control of crop diseases, post-harvest rot and as environmental disinifectant products” (DMC Research Center, S.L., priority 2007, published 2009).

Experiments:
Rhizopus stolonifer = test: disinfection of containers stored inside the rooms by fogging
fungal population = test: disinfection by drencher of naturally contaminated containers of a citrus fruit processing plant
[1] = system: mixture of fungi (P. expansum, P. italicum, P. digitatum and A. alternata); test: disinfection of rooms by means of fogging
[2] = system: Fungi mixture (P. expansum, P. italicum, P. digitatum and A. Alternata); test: disinfection of containers stored inside the rooms by fogging
[3] = system: Bacillus cereus ATCC 10876; test: agar diffusion test with impregnated cellulose discs; assay type: cell-based; conditions: incl. 6 mm disc
[4] = system: Escherichia coli ATCC 25922; test: as above; assay type: cell-based; conditions: incl. 6 mm disc
Penicillium italicum = test: post-harvest rotting of inoculated oranges (Navelina), immersion treatment; assay type: in vivo
Protocol: (§1) This example considers the effectiveness of the active natural principles PTS and PTSO in two different doses for the control of post-harvest rotting of oranges ([…] variety), caused by controlled artificial inoculation with the fungi Penicillium digitatum, Penicillium expansum, Phytophthora citrophthora and Geotrichum candidum, the principal pathogens of this fruit. The inoculation of the oranges was carried out with suspensions of spores of the different wild fungal strains selected, according to the methodology described below. The first step was the isolation and identification of the fungal strains used in the study. The strains of filamentous fungi used in these tests (Penicillium digitatum, Penicillium italicum and Phytophthora citrophthora) were isolated from oranges affected by rot. In these isolation processes, it was not possible to detect any strain belonging to Geotrichum candidum, as a result of which it was necessary to obtain the latter substance from the Spanish Collection of Standard Cultures, where it is identified by reference CECT 1102. […] To promote the implantation of the inoculum of Geotrichum candidum, 200 ppm of cyclohexamide was added to the inoculum prior to its inoculation. […] The assessment of the effectiveness of PTS and PTSO comprised counting of the number of fruits affected by rot in the inoculated zone, to determine the percentage of fruit affected for each treatment and fungus inoculated, and expressing this effectiveness as a percentage of reduction of the affected fruit.

Penicillium digitatum = test: as above; assay type: in vivo
Protocol: as §1

[5] = system: Bacillus subtilis ATCC 6633; test: agar diffusion test with impregnated cellulose discs; assay type: cell-based; conditions: incl. 6 mm disc
post-harvest rot = post-harvest rot of oranges originating directly from the field (not inoculated); assay type: in vivo; conditions: for % of fruit affected: oranges refrigerated for 28 days at 5° C., 200 fruits not inoculated; for reduction of the quantity of fruit affected compared to the untreated fruit: specified doses, end of the refrigeration period (28 days at 5° C.)
Protocol: Once the oranges had been artificially contaminated, the treatments were conducted by immersing the oranges in solutions of PTS and PTSO prepared at doses of 1600 and 2500 ppm, and were stored at 20° C.
The assessment of the effectiveness of PTS and PTSO comprised counting of the number of fruits affected by rot in the inoculated zone, to determine the percentage of fruit affected for each treatment and fungus inoculated, and expressing this effectiveness as a percentage of reduction of the affected fruit.
On the basis of the results obtained by the application of PTS and PTSO to oranges of the Navelina variety originating directly from the field, both products, applied in the specified doses, are effective in the control of post-harvest rot. Both PTS and PTSO in turn reduce by 50% the quantity of fruit affected at the end of the refrigeration period (28 days at a temperature of 5° C.) compared to the untreated fruit, as a result of which they are an effective alternative to the synthetic treatments conventionally used.

[6] = system: Fungi mixture (P. expansum, P. italicum, P. digitatum and A. Alternata); test: disinfection of artificially contaminated containers by drencher; conditions: drencher 30 seconds
Protocol: A test of the disinfection of containers (fruit boxes and crates) was conducted in which a level of artificial contamination was created by means of controlled inoculation, with the objective of determining optimum doses of application to achieve a satisfactory disinfection. First the containers (made of wood and plastic) were disinfected with sodium hypochlorite, and they were then artificially contaminated via controlled inoculations with different fungi characteristic of the fruit and vegetable processing sector. For this purpose, isolated wild strains were used which, after sporulation, were collected to create a suspension of mixed spores of various fungi (Penicillium expansum, Penicillium italicum, Penicillium digitarum and Alternario alternata) and, separately in simultaneous tests (as a result of its higher rate of growth and its invasive character), a suspension of Rhizopus stolonifer. […] After this fogging, the containers were allowed to dry. The containers were then sampled to determine the level of initial contamination achieved (by means of contact plates containing Rose Bengal agar). The containers were then treated in a pilot line […]. The hold time of the containers under the showers was 30 seconds, and the test doses were 750 ppm and 1050 ppm for PTS and 2000 ppm and 5000 ppm in the case of PTSO. After exiting the showers, the treated containers were allowed to dry, and were again sampled using contact plates with Rose Bengal agar to determine the final level of contamination. The sampling unit was 3 containers and 3 plates per repetition.

[7] = system: plants inoculated with mycorrhizal fungi; conditions: in vivo
[8] = 1600 ppm, 4 days at 20° C., title: treated with PTSO
[9] = 2500 ppm, 4 days at 20° C., title: treated with PTSO
[10] = 1600 ppm, 5 days of treatment at 20° C., title: treated with PTSO
[11] = 1600 ppm, 7 days of treatment at 20° C., title: treated with PTSO
[12] = 2500 ppm, 5 days of treatment at 20° C., title: treated with PTSO
[13] = 2500 ppm, 7 days of treatment at 20° C., title: treated with PTSO

## CCCS[S+]([O-])CCC (centres unmarked) [PTS, Propyl Propyl Thiosulfinate]
Rhizopus stolonifer; 750 ppm, Plastic container
  Reduction of the population (%): 36%
Rhizopus stolonifer; 1050 ppm, Plastic container
  Reduction of the population (%): 27%
Rhizopus stolonifer; 1050 ppm, Wood container
  Reduction of the population (%): 26%
Fungal population; PTS 750 mm, Bottom of the pallet, Beginning of bath
  Reduction of the fungal population (%): 87%
Fungal population; PTS 750 mm, Bottom of the pallet, End of bath
  Reduction of the fungal population (%): 79%
Fungal population; PTS 750 mm, Side of the pallet, Beginning of bath
  Reduction of the fungal population (%): 97%
Fungal population; PTS 750 mm, Side of the pallet, End of bath
  Reduction of the fungal population (%): 100%
[1]; 750 ppm, Environment
  Reduction in the population of the mixture of fungi expressed in %: 89%
[1]; 750 ppm, Walls
  Reduction in the population of the mixture of fungi expressed in %: 96%
[1]; 1050 ppm, Environment
  Reduction in the population of the mixture of fungi expressed in %: 100%
[1]; 1050 ppm, Walls
  Reduction in the population of the mixture of fungi expressed in %: 97%
[2]; 750 ppm, Plastic container
  Reduction of the population (%): 97%
[2]; 750 ppm, Wood container
  Reduction of the population (%): 97%
[2]; 1050 ppm, Plastic container
  Reduction of the population (%): 98%
[2]; 1050 ppm, Wood container
  Reduction of the population (%): 97%
[3]; 60 ppm
  diameter of the microbial inhibition halo: 15 mm
[3]; 125 ppm
  diameter of the microbial inhibition halo: 20 mm
[3]; 250 ppm
  diameter of the microbial inhibition halo: 25 mm
[3]; 500 ppm
  diameter of the microbial inhibition halo: 27 mm
[3]; 1000 ppm
  diameter of the microbial inhibition halo: 35 mm
[4]; 60 ppm
  diameter of the microbial inhibition halo: 12 mm
[4]; 125 ppm
  diameter of the microbial inhibition halo: 17 mm
[4]; 250 ppm
  diameter of the microbial inhibition halo: 24 mm
[4]; 500 ppm
  diameter of the microbial inhibition halo: 25 mm
[4]; 1000 ppm
  diameter of the microbial inhibition halo: 27 mm
Penicillium italicum; [8]
  % Reduction: 80%
  % of fruit affected: 20%
Penicillium italicum; 1600 ppm, 14 days at 20° C.
  % Reduction: 72%
  % of fruit affected: 28%
Penicillium italicum; 1666 ppm, 7 days at 20° C.
  % of fruit affected: 0%
Penicillium italicum; [9]
  % Reduction: 85%
  % of fruit affected: 15%
Penicillium italicum; 2500 ppm, 7 days at 20° C.
  % Reduction: 100%
  % of fruit affected: 0%
Penicillium italicum; 2500 ppm, 14 days at 20° C.
  % Reduction: 85%
  % of fruit affected: 15%
Penicillium digitatum; [10]
  % Reduction: 72%
  % of fruit affected: 28%
Penicillium digitatum; [11]
  % Reduction: 40%
  % of fruit affected: 60%
Penicillium digitatum; 1600 ppm, 14 days at 20° C.
  % Reduction: 0%
  % of fruit affected: 100%
Penicillium digitatum; 1666 ppm, 7 days at 20° C.
  % Reduction: 23%
  % of fruit affected: 77%
Penicillium digitatum; [12]
  % Reduction: 85%
  % of fruit affected: 15%
Penicillium digitatum; 2500 ppm, 7 days at 20° C.
  % Reduction: 53%
  % of fruit affected: 47%
Penicillium digitatum; [13]
  % Reduction: 57%
  % of fruit affected: 43%
Penicillium digitatum; 2500 ppm, 14 days at 20° C.
  % of fruit affected: 36%
[5]; 60 ppm
  diameter of the microbial inhibition halo: 32 mm
[5]; 125 ppm
  diameter of the microbial inhibition halo: 35 mm
[5]; 250 ppm
  diameter of the microbial inhibition halo: 40 mm
[5]; 500 ppm
  diameter of the microbial inhibition halo: 55 mm
[5]; 1000 ppm
  diameter of the microbial inhibition halo: 55 mm
post-harvest rot; 1666 ppm
  % of fruit affected: 10%
post-harvest rot
  reduction of the quantity of fruit affected compared to the untreated fruit: 50%
[6]; 750 ppm, Plastic container
  Reduction of the population (%): 81%
[6]; 750 ppm, Wood container
  Reduction of the population (%): 85%
[6]; 1050 ppm, Plastic container
  Reduction of the population (%): 87%
[6]; 1050 ppm, Wood container
  Reduction of the population (%): 85%
[7]
  phytotoxicity to the plant: did not suffer phytotoxicity

## CCCSS(=O)(=O)CCC [PTSO, Propyl Propyl Thiosulfonate]
Rhizopus stolonifer; 2000 ppm, Plastic container
  Reduction of the population (%): 77%
Rhizopus stolonifer; 2000 ppm, Wood container
  Reduction of the population (%): 78%
Rhizopus stolonifer; 5000 ppm, Plastic container
  Reduction of the population (%): 71%
Rhizopus stolonifer; 5000 ppm, Wood container
  Reduction of the population (%): 56%
Fungal population; PTSO 2000 ppm, Bottom of the pallet, Beginning of bath
  Reduction of the fungal population (%): 93%
Fungal population; PTSO 2000 ppm, Bottom of the pallet, End of bath
  Reduction of the fungal population (%): 96%
Fungal population; PTSO 2000 ppm, Side of the pallet, Beginning of bath
  Reduction of the fungal population (%): 100%
Fungal population; PTSO 2000 ppm, Side of the pallet, End of bath
  Reduction of the fungal population (%): 87%
[1]; 2000 ppm, Environment
  Reduction in the population of the mixture of fungi expressed in %: 100%
[1]; 2000 ppm, Walls
  Reduction in the population of the mixture of fungi expressed in %: 95%
[1]; 5000 ppm, Environment
  Reduction in the population of the mixture of fungi expressed in %: 100%
[1]; 5000 ppm, Walls
  Reduction in the population of the mixture of fungi expressed in %: 100%
[2]; 2000 ppm, Plastic container
  Reduction of the population (%): 94%
[2]; 2000 ppm, Wood container
  Reduction of the population (%): 67%
[2]; 5000 ppm, Plastic container
  Reduction of the population (%): 92%
[2]; 5000 ppm, Wood container
  Reduction of the population (%): 70%
[3]; 60 ppm
  diameter of the microbial inhibition halo: 25 mm
[3]; 125 ppm
  diameter of the microbial inhibition halo: 35 mm
[3]; 250 ppm
  diameter of the microbial inhibition halo: 45 mm
[3]; 500 ppm
  diameter of the microbial inhibition halo: 47 mm
[3]; 1000 ppm
  diameter of the microbial inhibition halo: 49 mm
[4]; 60 ppm
  diameter of the microbial inhibition halo: 18 mm
[4]; 125 ppm
  diameter of the microbial inhibition halo: 19 mm
[4]; 250 ppm
  diameter of the microbial inhibition halo: 26 mm
[4]; 500 ppm
  diameter of the microbial inhibition halo: 27 mm
[4]; 1000 ppm
  diameter of the microbial inhibition halo: 29 mm
Penicillium italicum; [8]
  % Reduction: 80%
Penicillium italicum; [9]
  % Reduction: 85%
Penicillium digitatum; [10]
  % Reduction: 72%
Penicillium digitatum; [11]
  % Reduction: 40%
Penicillium digitatum; [12]
  % Reduction: 85%
Penicillium digitatum; [13]
  % Reduction: 57%
[5]; 60 ppm
  diameter of the microbial inhibition halo: 27 mm
[5]; 125 ppm
  diameter of the microbial inhibition halo: 36 mm
[5]; 250 ppm
  diameter of the microbial inhibition halo: 42 mm
[5]; 500 ppm
  diameter of the microbial inhibition halo: 50 mm
[5]; 1000 ppm
  diameter of the microbial inhibition halo: 68 mm
post-harvest rot; 2500 ppm
  % of fruit affected: 15%
post-harvest rot
  reduction of the quantity of fruit affected compared to the untreated fruit: 50%
[6]; 2000 ppm, Plastic container
  Reduction of the population (%): 93%
[6]; 2000 ppm, Wood container
  Reduction of the population (%): 98%
[6]; 5000 ppm, Plastic container
  Reduction of the population (%): 93%
[6]; 5000 ppm, Wood container
  Reduction of the population (%): 99%
[7]
  phytotoxicity to the plant: did not suffer phytotoxicity
